Test results from PMC8034185, “The rumen eukaryotome is a source of novel antimicrobial peptides with therapeutic potential” (BMC Microbiology, 2021).
Ends that are not written are not given here.

What was measured:
sheep erythrocytes = assay: Haemolytic activity; type: cell-based; conditions: for haemolysis of sheep erythrocytes: 1 h; for Haemolytic activity (Minus PBS/average positive*100): sheep erythrocytes
Description: (§1) Fresh human red blood cells (RBC) (Cambridge Bioscience, UK) and defibrinated sheep erythrocytes (Oxoid Ltd. Hampshire, UK) were washed 3 times with PBS, centrifuged for 5 min at 500 rpm between each wash and resuspended to 4% (v/v) in PBS. […] The percentage of haemolysis was calculated according to the equation: (A450 peptide solution − A450 PBS)/ (A450 0.1% Triton X-100 − A450 PBS) × 100. The therapeutic index (T.I.) was calculated as the ratio of the minimum haemolytic concentration ((MHC)- causing 5% haemolysis to human erythrocytes) to the minimum inhibitory concentration (MICGM+) [46]. The MICGM+ was the minimum inhibitory concentration of the peptide against Gram-positive bacterial strains after the geometric mean was calculated.

S. aureus strains = type: cell-based, Staphylococcus aureus
[1] = tested on: drug resistant A. baumannii isolates; type: cell-based, Acinetobacter baumannii
Description: MICs against a range of clinically important Gram-positive and Gram-negative bacteria strains including methicillin-sensitive Staphylococcus aureus (MSSA) RN4220 epidemic methicillin-resistant S. aureus-15 (EMRSA-15), methicillin-resistant S. aureus USA300 (MRSA USA300), Bacillus cereus, Enterococcus faecalis JH2–2, Escherichia coli K12, Salmonella enterica serovar Typhimurium SL1344, P. aeruginosa PAO1, and hospital isolates of Acinetobacter baummannii were determined in quadruplicate by a modified microdilution broth method [64] with a final bacterial inoculum concentration of 5 × 10^5 CFU/mL utilised as the test organisms. Cation-adjusted Mueller Hinton (MH) broth was innoclated overnight with a single colony of the tested microorganisms, subsequently grown for 16–24 h with shaking at 225 rpm, and further diluted in the same broth to a final concentration of 5 × 10^5 CFU/mL. The bacterial suspension was added to sterile U-bottomed 96-well plates, and the peptides and control antibiotics to be tested were dissolved in sterile distilled water and serially diluted in the wells. The MICs were recorded as the lowest peptide concentration that inhibited growth after incubation for 18 h [65]. […]

human red blood cells = assay: Haemolytic activity; type: cell-based; conditions: human RBC, CTAB control
Description: as §1

| Compound | haemolysis of sheep erythrocytes (sheep erythrocytes; 16 μg/mL) [%] | haemolysis of sheep erythrocytes (sheep erythrocytes; 24 μg/mL) [%] | Haemolytic activity (Minus PBS/average positive*100) (sheep erythrocytes; 1x MIC, mean) | Haemolytic activity (Minus PBS/average positive*100) (sheep erythrocytes; 1x MIC, replicate 1) | Haemolytic activity (Minus PBS/average positive*100) (sheep erythrocytes; 1x MIC, replicate 2) | Haemolytic activity (Minus PBS/average positive*100) (sheep erythrocytes; 1x MIC, replicate 3) | Haemolytic activity (Minus PBS/average positive*100) (sheep erythrocytes; 1x MIC, replicate 4) | Haemolytic activity (Minus PBS/average positive*100) (sheep erythrocytes; 2x MIC, mean) | Haemolytic activity (Minus PBS/average positive*100) (sheep erythrocytes; 2x MIC, replicate 1) | Haemolytic activity (Minus PBS/average positive*100) (sheep erythrocytes; 2x MIC, replicate 2) | Haemolytic activity (Minus PBS/average positive*100) (sheep erythrocytes; 2x MIC, replicate 3) | Haemolytic activity (Minus PBS/average positive*100) (sheep erythrocytes; 2x MIC, replicate 4) | Haemolytic activity (Minus PBS/average positive*100) (sheep erythrocytes; 3x MIC, mean) | Haemolytic activity (Minus PBS/average positive*100) (sheep erythrocytes; 3x MIC, replicate 1) | Haemolytic activity (Minus PBS/average positive*100) (sheep erythrocytes; 3x MIC, replicate 2) | Haemolytic activity (Minus PBS/average positive*100) (sheep erythrocytes; 3x MIC, replicate 3) | Haemolytic activity (Minus PBS/average positive*100) (sheep erythrocytes; 3x MIC, replicate 4) | MIC against S. aureus strains (S. aureus strains) [µg/mL] | MIC against drug resistant A. baumannii isolates [1] [µg/mL] | Haemolytic (human red blood cells) |
| --- | --- | --- | --- | --- | --- | --- | --- | --- | --- | --- | --- | --- | --- | --- | --- | --- | --- | --- | --- | --- |
| GIVAWFWRLAR [Lubelisin] | ~20 | ~30 | 12.8836 | 12.4097 | 12.5903 | 11.8682 | 14.6661 | 18.8177 | 17.1029 | 22.6986 | 19.9007 | 15.5686 | 33.7319 | 34.2509 | 33.1679 | 33.7094 | 33.7996 | 8 | 128 | – |
| CCCCCCCCCCCCCCCC[N+](C)(C)C.[Br-] [CTAB] | – | – | – | – | – | – | – | – | – | – | – | – | – | – | – | – | – | – | – | 100 |
